Measured values taken from patent US20070088021A1, “4-haloisoquinoline derivative and drug containing the same” (priority 2005, published 2007).
Structures can show the parent of a compound that is named as a salt.

Tests used:
Rho kinase [1] = conditions: order of magnitude stated in background; cited from earlier work
Rho kinase [2] = molecular target: T1, Rho kinase; test: Rho-kinase assay (measurement of kinase inhibitory activity); type: biochemical; conditions: method of Patent Document 1
T1 construct: IC50 for Rho kinase
Experimental: A Rho-kinase assay was performed according to the method described in Patent Document 1, and the 50% inhibitory concentration (hereinafter referred to as the “IC50 value”) for Rho kinase was calculated.

Row | SMILES | 50% inhibitory concentration (IC50) for Rho kinase (Rho kinase [1]) | IC50 (Rho kinase [2]) [nM]
1 | Cc1cncc2cccc(S(=O)(=O)N3CCCNC[C@@H]3C)c12.Cl [(S)-(+)-hexahydro-2-methyl-1-(4-methyl-5-isoquinolinesulfonyl)-1H-1,4-diazepine hydrochloride] | 1/100 | 
2 | C[C@H]1CNCCCN1S(=O)(=O)c1cccc2cncc(Br)c12 [Dihydrochloride of Compound (1) X = Br, 2-(S)-1-(4-bromoisoquinoline-5-sulfonyl)-2-methylhomopiperazine] |  | 5.8
3 | CC1CNCCCN1S(=O)(=O)c1cccc2cncc(Cl)c12 (centres unmarked) [Dihydrochloride of Compound (1) X = Cl] |  | 25.8
4 | C[C@H]1CNCCCN1S(=O)(=O)c1cccc2cncc(F)c12 [Dihydrochloride of Compound (1) X = F] |  | 85
5 | Cc1cncc2cccc(S(=O)(=O)N3CCCNC[C@@H]3C)c12 [Reference Compound B, (S)-(+)-hexahydro-2-methyl-1-(4-methyl-5-isoquinolinesulfonyl)-1H-1,4-diazepine hydrochloride, reference compound] |  | 12
